Measured values reported in paper PMC10504751, “Chalcone/1,3,4-Oxadiazole/Benzimidazole hybrids as novel anti-proliferative agents inducing apoptosis and inhibiting EGFR & BRAFV^600E” (BMC Chemistry, 2023).

Legend:
Experiment in all cases: NCI one-dose SRB anti-proliferative screen
Format in all cases: cell-based
HL-60(TB) = details: Homo sapiens; HL-60(TB) (Leukemia), NCI one dose 10 µM; read-out: Cell growth inhibition %
Procedure, shortened: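 Activity reflects a single-point exposure at 10 µM, with cell mass determined by a sulforhodamine B dye assay.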

HCC-2998 = details: Homo sapiens; HCC-2998 (Colon Cancer), NCI one dose 10 µM; read-out: Cell growth inhibition %
Procedure, shortened: (§1)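 Using a fixed 10 µM dose, anti-proliferative activity is measured through sulforhodamine B binding, read colorimetrically, in one of sixty human tumour lines.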

SF-295 = details: Homo sapiens; SF-295 (CNS Cancer), NCI one dose 10 µM; read-out: Cell growth inhibition %
Procedure, shortened: as §1

UACC-257 = details: Homo sapiens; UACC-257 (Melanoma), NCI one dose 10 µM; read-out: Cell growth inhibition %
Procedure, shortened: as §1

HOP-92 = details: Homo sapiens; HOP-92 (Non-Small Cell Lung Cancer), NCI one dose 10 µM; read-out: Cell growth inhibition %
Procedure, shortened: as §1

SNB-19 = details: Homo sapiens; SNB-19 (CNS Cancer), NCI one dose 10 µM; read-out: Cell growth inhibition %
Procedure, shortened: as §1

IGROV1 = details: Homo sapiens, IGROV-1; IGROV1 (Ovarian Cancer), NCI one dose 10 µM; read-out: Cell growth inhibition %
Procedure, shortened: as §1

NCI-H322M = details: Homo sapiens; NCI-H322M (Non-Small Cell Lung Cancer), NCI one dose 10 µM; read-out: Cell growth inhibition %
Procedure, shortened: as §1

SK-MEL-28 = details: Homo sapiens; SK-MEL-28 (Melanoma), NCI one dose 10 µM; read-out: Cell growth inhibition %
Procedure, shortened: as §1

OVCAR-5 = details: Homo sapiens; OVCAR-5 (Ovarian Cancer), NCI one dose 10 µM; read-out: Cell growth inhibition %
Procedure, shortened: as §1

NCI-H23 = details: Homo sapiens; NCI-H23 (Non-Small Cell Lung Cancer), NCI one dose 10 µM; read-out: Cell growth inhibition %
Procedure, shortened: as §1

MALME-3M = details: Homo sapiens; MALME-3M (Melanoma), NCI one dose 10 µM; read-out: Cell growth inhibition %
Procedure, shortened: as §1

OVCAR-8 = details: Homo sapiens; OVCAR-8 (Ovarian Cancer), NCI one dose 10 µM; read-out: Cell growth inhibition %
Procedure, shortened: as §1

SF-539 = details: Homo sapiens; SF-539 (CNS Cancer), NCI one dose 10 µM; read-out: Cell growth inhibition %
Procedure, shortened: as §1

A549/ATCC = details: Homo sapiens; A549/ATCC (Non-Small Cell Lung Cancer), NCI one dose 10 µM; read-out: Cell growth inhibition %
Procedure, shortened: as §1

TK-10 = details: Homo sapiens; TK-10 (Renal Cancer), NCI one dose 10 µM; read-out: Cell growth inhibition %
Procedure, shortened: as §1

MDA-MB-231/ATCC = details: Homo sapiens; MDA-MB-231/ATCC (Breast Cancer), NCI one dose 10 µM; read-out: Cell growth inhibition %
Procedure, shortened: as §1

HCT-15 = details: Homo sapiens; HCT-15 (Colon Cancer), NCI one dose 10 µM; read-out: Cell growth inhibition %
Procedure, shortened: as §1

KM12 = details: Homo sapiens; KM12 (Colon Cancer), NCI one dose 10 µM; read-out: Cell growth inhibition %
Procedure, shortened: as §1

SK-MEL-5 = details: Homo sapiens; SK-MEL-5 (Melanoma), NCI one dose 10 µM; read-out: Cell growth inhibition %
Procedure, shortened: as §1

SK-OV-3 = details: Homo sapiens; SK-OV-3 (Ovarian Cancer), NCI one dose 10 µM; read-out: Cell growth inhibition %
Procedure, shortened: as §1

M14 = details: Homo sapiens; M14 (Melanoma), NCI one dose 10 µM; read-out: Cell growth inhibition %
Procedure, shortened: as §1

HT29 = details: Homo sapiens, HT-29; HT29 (Colon Cancer), NCI one dose 10 µM; read-out: Cell growth inhibition %
Procedure, shortened: as §1

MCF7 = details: Homo sapiens; MCF7 (Breast Cancer), NCI one dose 10 µM; read-out: Cell growth inhibition %
Procedure, shortened: as §1

COLO 205 = details: Homo sapiens; COLO 205 (Colon Cancer), NCI one dose 10 µM; read-out: Cell growth inhibition %
Procedure, shortened: as §1

PC-3 = details: Homo sapiens; PC-3 (Prostate Cancer), NCI one dose 10 µM; read-out: Cell growth inhibition %
Procedure, shortened: as §1

OVCAR-4 = details: Homo sapiens; OVCAR-4 (Ovarian Cancer), NCI one dose 10 µM; read-out: Cell growth inhibition %
Procedure, shortened: as §1

NCI-H460 = details: Homo sapiens; NCI-H460 (Non-Small Cell Lung Cancer), NCI one dose 10 µM; read-out: Cell growth inhibition %
Procedure, shortened: as §1

DU-145 = details: Homo sapiens; DU-145 (Prostate Cancer), NCI one dose 10 µM; read-out: Cell growth inhibition %
Procedure, shortened: as §1

LOX IMVI = details: Homo sapiens; for inhibition at 10 µM: LOX IMIV (Melanoma), NCI one dose 10 µM, read-out: Cell growth inhibition %
Procedure, shortened: as §1

SW-620 = details: Homo sapiens; SW-620 (Colon Cancer), NCI one dose 10 µM; read-out: Cell growth inhibition %
Procedure, shortened: as §1

Structure (SMILES)	inhibition at 10 µM (HL-60(TB)) [%]	inhibition at 10 µM (HCC-2998) [%]	inhibition at 10 µM (SF-295) [%]	inhibition at 10 µM (UACC-257) [%]	inhibition at 10 µM (HOP-92) [%]	inhibition at 10 µM (SNB-19) [%]	inhibition at 10 µM (IGROV1) [%]	inhibition at 10 µM (NCI-H322M) [%]	inhibition at 10 µM (SK-MEL-28) [%]	inhibition at 10 µM (OVCAR-5) [%]	inhibition at 10 µM (NCI-H23) [%]	inhibition at 10 µM (MALME-3M) [%]	inhibition at 10 µM (OVCAR-8) [%]	inhibition at 10 µM (SF-539) [%]	inhibition at 10 µM (A549/ATCC) [%]	inhibition at 10 µM (TK-10) [%]	inhibition at 10 µM (MDA-MB-231/ATCC) [%]	inhibition at 10 µM (HCT-15) [%]	inhibition at 10 µM (KM12) [%]	inhibition at 10 µM (SK-MEL-5) [%]	also measured
O=C(CSc1nnc(-c2ccc3[nH]c(-c4ccc(Cl)cc4)nc3c2)o1)Nc1ccc(C(=O)/C=C/c2ccccc2)cc1 [Compound 7f, 2-{5-[2-(4-Chlorophenyl)-1 H-benzo[d]imidazol-5-yl]-1,3,4-oxadiazol-2-ylthio}-N-{4-[(E)-3-phenylacryloyl]phenyl}acetamide]	0	0	0	0	0	0	0	0	0	0	0	3.93	0	2.1	0	0	2.18	0	0	0.99	inhibition at 10 µM (SK-OV-3): 0%; inhibition at 10 µM (M14): 0%; inhibition at 10 µM (HT29): 0%; inhibition at 10 µM (MCF7): 18.4%; inhibition at 10 µM (COLO 205): 0%; inhibition at 10 µM (PC-3): 0%; inhibition at 10 µM (OVCAR-4): 0%; inhibition at 10 µM (NCI-H460): 0%; inhibition at 10 µM (DU-145): 0%; inhibition at 10 µM (LOX IMVI): 22.9%; inhibition at 10 µM (SW-620): 0%
O=C(CSc1nnc(-c2ccc3[nH]c(-c4ccc(Cl)cc4)nc3c2)o1)Nc1ccc(C(=O)/C=C/c2ccc(Cl)cc2)cc1 [Compound 7g, 2-{5-[2-(4-Chlorophenyl)-1 H-benzo[d]imidazol-5-yl]-1,3,4-oxadiazol-2-ylthio}-N-{4-[(E)-3-(4-chlorophenyl)acryloyl]phenyl}acetamide]	14	0	7.04	0	5.81	0.54	14.4	4.64	0	0	0	0	2.88	15.7	4.52	0	9.38	10.2	0.67	6.32	inhibition at 10 µM (SK-OV-3): 0%; inhibition at 10 µM (M14): 0%; inhibition at 10 µM (HT29): 0%; inhibition at 10 µM (MCF7): 44.8%; inhibition at 10 µM (COLO 205): 0%; inhibition at 10 µM (PC-3): 12.3%; inhibition at 10 µM (OVCAR-4): 0%; inhibition at 10 µM (NCI-H460): 0%; inhibition at 10 µM (DU-145): 0%; inhibition at 10 µM (LOX IMVI): 124%; inhibition at 10 µM (SW-620): 0%
COc1ccc(/C=C/C(=O)c2ccc(NC(=O)CSc3nnc(-c4ccc5[nH]c(-c6ccc(Cl)cc6)nc5c4)o3)cc2)cc1 [Compound 7h, 2-{5-[2-(4-Chlorophenyl)-1 H-benzo[d]imidazol-5-yl]-1,3,4-oxadiazol-2-ylthio}-N-{4-[(E)-3-(4-methoxyphenyl)acryloyl]phenyl}acetamide]	21.4	0	0	0	0	0	4.69	0	0	0	6	6.52	20.5	5.67	0	0	1.61	5.06	0.3	10.3	inhibition at 10 µM (SK-OV-3): 0%; inhibition at 10 µM (M14): 0%; inhibition at 10 µM (HT29): 0%; inhibition at 10 µM (MCF7): 20.3%; inhibition at 10 µM (COLO 205): 0%; inhibition at 10 µM (PC-3): 17.5%; inhibition at 10 µM (OVCAR-4): 0%; inhibition at 10 µM (NCI-H460): 0%; inhibition at 10 µM (DU-145): 0%; inhibition at 10 µM (LOX IMVI): 93.2%; activity at 10 µM (LOX IMVI; LOX IMVI (Melanoma), 10 µM one dose, read-out: Growth Percent): -32 to 18%; inhibition at 10 µM (SW-620): 0%
